Reference: paper PMC11643578, “Cytotoxic and Antibacterial Cyclodepsipeptides from an Endophytic Fungus Fusarium avenaceum W8” (Molecules, 2024)
In brackets after ≈: the same amount, converted by molar mass. Like-named read-outs stand apart in the source and are kept apart here. Square brackets hold non-standard residues; d marks the D form. Peptide text beside a SMILES is read from it. Hica(2S) = CC(C)C[C@H](O)C(=O)O; dHica = CC(C)C[C@@H](O)C(=O)O; βAla = NCCC(=O)O

Key:
Type in all cases: cell-based
Staphylococcus aureus [1] = experiment: Antimicrobial activity assay (MIC80, OD600), S. aureus; conditions: LB broth, 128-4 μg/mL, 37 °C, 24 h; for MIC80 against S. aureus: 96-well plate
Procedure: (§1) Strains of S. aureus and S. cerevisiae were used for the antimicrobial activity assay, and compounds 1–7 were evaluated as described. We resuscitated the bacteria and centrifuge them at 8000 rpm for 5 min at 4 °C; we then washed the precipitate twice with PBS. We diluted it with Luria-Bertani (LB) broth medium to the concentration of 5 × 10^5 CFU/mL. Strains were grown to OD600 = 0.3 in LB broth medium and diluted 400-fold. Aliquots (200 μL) of the diluted suspensions were placed into 96-well microtiter plates with isolated compounds at concentrations of 128, 64, 32, 16, 8, and 4 μg/mL and cultured at 37 °C for 24 h. Furazolidone was the positive control and DMSO was used as the negative control. The OD600 values were used to test the antimicrobial rate for MIC80.

Saccharomyces cerevisiae [2] = experiment: Antimicrobial activity assay (MIC80, OD600), S. cerevisiae; conditions: LB broth, 128-4 μg/mL, 37 °C, 24 h
Procedure: as §1

[3] = test system: NCI-H1944 human lung adenocarcinoma cell line; experiment: MTT cytotoxicity assay, NCI-H1944; conditions: NCI-H1944 cells, 72 h treatment, absorbance 562 nm (reference 630 nm), read-out: IC50 Values, cytotoxicity against NCI-H1944
Procedure: (§2) The cytotoxicity of the compound against A549 and NCI-1944 lines was determined by using 3-(4,5-dimethyl-2-thiazolyl)-2,5-diphenyl-2-H-tetrazolium bromide (MTT). The cells were maintained in DMEM containing 10% (v/v) fetal bovine serum (FBS) and 0.4% (v/v) penicillin−streptomycin solution (10,000 units/mL penicillin and 10,000 μg/mL streptomycin, 100X) at 37 °C under 5% CO2. After 24 h of adherent cell growth, different concentrations of the compounds, positive control adriamycin (ADM), and blank control (methanol) were added to 96-well plates. After 72 h, 20 μL of MTT solution was added. The absorbance value (detection wavelength is 562 nm and reference wavelength is 630 nm) was measured on the microplate reader, and the IC50 value of each compound was calculated.

[4] = test system: A549 human lung adenocarcinoma cell line; experiment: MTT cytotoxicity assay, A549; conditions: A549 cells, 72 h treatment, absorbance 562 nm (reference 630 nm), read-out: IC50 Values, cytotoxicity against A549
Procedure: as §2

Saccharomyces cerevisiae [5] = experiment: Growth time-OD600 curve at MIC80, S. cerevisiae; conditions: compound at its MIC80 concentration, OD600 at 8-32 h, 37 °C, n = 3
Procedure: (§3) The strain was grown to OD600 = 0.3 in LB broth medium and diluted 100-fold. Aliquots (200 μL) of the diluted suspensions were placed into 96-well microtiter plates, and compounds 1 and 4 at the concentration of MIC80 were cultured in the plate at 37 °C. The absorbance value was measured at OD600 at 8 h, 12 h, 16 h, 20 h, 24 h, and 32 h.

Staphylococcus aureus [6] = experiment: Growth time-OD600 curve at MIC80, S. aureus; conditions: compound at its MIC80 concentration, OD600 at 8-32 h, 37 °C, n = 3
Procedure: as §3

`CC[C@H](C)[C@H]1OC(=O)[C@H](C(C)C)N(C)C(=O)[C@@H](C(C)C)OC(=O)[C@H](C(C)C)N(C)C(=O)[C@@H](C(C)C)OC(=O)[C@H](C(C)C)N(C)C1=O` [Compound 4, enniatin H] was tested, and the “antimicrobial activity against S. aureus (in words)” value (Staphylococcus aureus [1]) was “did not display strong antimicrobial activity” and the “antimicrobial activity against S. cerevisiae (in words)” value (Saccharomyces cerevisiae [2]) was “did not display strong antimicrobial activity”.

`COc1cccc2c1C(=O)c1c(O)c3c(c(O)c1C2=O)C[C@@](O)(C(=O)CO)C[C@@H]3O[C@H]1C[C@H](N)[C@H](O)[C@H](C)O1` [adriamycin, reference compound] gave an IC50 ([3]; Homo sapiens) of 4.35 ± 0.27 µM and an IC50 ([4]; Homo sapiens) of 4.26 ± 0.17 µM.

For `CC[C@H](C)[C@@H]1NC(=O)[C@H](CC(C)C)NC(=O)[C@H](CC(C)C)NC(=O)CCNC(=O)[C@@H](CC(C)C)OC1=O` [Compound 2, avenamide B] (cyclo([dHica][βAla]LLI)), the “antimicrobial activity against S. aureus (in words)” value (Staphylococcus aureus [1]) was “did not display strong antimicrobial activity” and the “antimicrobial activity against S. cerevisiae (in words)” value (Saccharomyces cerevisiae [2]) was “did not display strong antimicrobial activity”.

`CC(C)[C@H]1C(=O)O[C@H](C(C)C)C(=O)N(C)[C@@H](C(C)C)C(=O)O[C@H](C(C)C)C(=O)N(C)[C@@H](C(C)C)C(=O)O[C@H](C(C)C)C(=O)N1C` [Compound 3, enniatin B] was tested, and the “MIC80 against S. aureus” value (Staphylococcus aureus [1]) was 11.08 µg/mL (≈ 17.3 µM), the “growth time curve of S. cerevisiae (in words)” value (Saccharomyces cerevisiae [5]) was “exhibited antimicrobial activity against both strains during the measuring time” and the “MIC80 against S. cerevisiae” value (Saccharomyces cerevisiae [2]; 96-well plate) was 16.92 µg/mL (≈ 26.4 µM). For the same compound, the “growth time curve of S. aureus (in words)” value (Staphylococcus aureus [6]) was “exhibited antimicrobial activity against both strains during the measuring time”.

In the case of `CC[C@H](C)[C@@H]1NC(=O)[C@H](CC(C)C)NC(=O)[C@H](CC(C)C)NC(=O)[C@H](CC(C)C)NC(=O)[C@H](CC(C)C)NC1=O` [Compound 6, cyclo-(L-Ile-L-Leu-L-Leu-L-Leu-L-Leu)] (cyclo(ILLLL)), the IC50 [3] is reported as less than 50 µM and the IC50 [4] is reported as less than 50 µM.

`CC(C)C[C@@H]1OC(=O)[C@H](Cc2ccccc2)NC(=O)[C@H](Cc2ccccc2)NC(=O)[C@H](Cc2ccccc2)NC(=O)[C@H](Cc2ccc(O)cc2)NC1=O` [Compound 1, avenamide A] (cyclo([Hica(2S)]YFFF)) was tested, and the “MIC80 against S. aureus” value (Staphylococcus aureus [1]) was 20.25 µg/mL (≈ 28.2 µM), the “growth time curve of S. cerevisiae (in words)” value (Saccharomyces cerevisiae [5]) was “exhibited antimicrobial activity against both strains during the measuring time” and the “growth time curve of S. aureus (in words)” value (Staphylococcus aureus [6]) was “exhibited antimicrobial activity against both strains during the measuring time”.

With `CC(C)C[C@@H]1NC(=O)[C@H](CC(C)C)NC(=O)[C@H](C(C)C)NC(=O)[C@H](CC(C)C)NC(=O)[C@@H](CC(C)C)NC1=O` [Compound 5, cyclo-(L-Leu-L-Leu-D-Leu-L-Leu-L-Val)] (cyclo(LL[dL]LV)) the IC50 [3] was less than 50 µM and the IC50 [4] was less than 50 µM.
